The values that follow are results of earlier work, collected in patent publication US9637723B2, “Generation of functional and durable endothelial cells from human amniotic fluid-derived cells” (Cornell University, priority 2012, dated 2017).

Where two headings read alike, the source gives them in different places.

The data set concerns the target T1, ALK5 (Homo sapiens, UniProt P36897).
T1 sequence (P36897 34-503): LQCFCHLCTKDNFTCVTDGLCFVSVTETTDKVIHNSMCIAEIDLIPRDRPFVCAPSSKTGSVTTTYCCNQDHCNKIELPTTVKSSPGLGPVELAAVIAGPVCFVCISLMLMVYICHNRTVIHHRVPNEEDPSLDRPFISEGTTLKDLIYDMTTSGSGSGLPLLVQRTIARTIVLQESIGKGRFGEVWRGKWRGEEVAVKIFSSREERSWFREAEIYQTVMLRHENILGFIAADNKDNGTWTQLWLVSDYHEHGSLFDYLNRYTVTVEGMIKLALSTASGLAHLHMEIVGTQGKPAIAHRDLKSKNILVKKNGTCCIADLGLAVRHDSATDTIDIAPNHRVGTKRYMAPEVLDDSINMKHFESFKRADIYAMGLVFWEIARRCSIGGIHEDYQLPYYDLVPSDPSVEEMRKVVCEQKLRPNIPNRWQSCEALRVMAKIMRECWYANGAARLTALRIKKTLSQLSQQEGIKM

Setting [1] is: as listed for compounds available through Tocris Bioscience.

With `Cc1cccc(-c2nn(C(=S)Nc3ccccc3)cc2-c2ccnc3ccccc23)n1` [A 83-01, 3-(6-Methyl-2-pyridinyl)-N-phenyl-4-(4-quinolinyl)-1H-pyrazole-1-carbothioamide], the Function entry under setting [1] is “(Selective inhibitor of ALK5, ALK4 and ALK7)”.
`c1ccc(-c2n[nH]cc2-c2ccnc3ccccc23)nc1` [LY 364947, 4-[3-(2-Pyridinyl)-1H-pyrazol-4-yl]-quinoline]: the Function result is “(Selective inhibitor of ALK5)”.
As for `Cc1cccc(-c2n[nH]cc2-c2ccc3ncccc3n2)n1` [SJN 2511, 2-(3-(6-Methylpyridine-2-yl)-1H-pyrazol-4-yl)-1,5-naphthyridine], the Function entry under setting [1] is given as “(Selective inhibitor of ALK5)”.
